Measured values: patent publication US20110070294A1, “Methods for the Administration of Drugs Using Liposomes” (priority 2009, published 2011)

Tested on: bovine blood treated with heparin
Test: Hemolysis of heparin-treated bovine blood, absorbance of supernatant at 398 nm
Details: sample added to 1.4 mL heparinized bovine blood, room temperature, 10 minutes
Description: 100 μL of a 5 mg/mL lyophilized docetaxel preparation (50 mM sodium oleate reconstituted with 6% liposome (Doc-100), 200 μL of 5 mg/mL lyophilized docetaxel containing 50 mM sodium oleate and reconstituted with 6% liposome (Doc-200), […] of placebo containing 50 mM sodium oleate and reconstituted with 6% liposome (Placebo-100), 200 μL of placebo containing 50 mM sodium oleate and reconstituted with 6% liposome (Placebo-200), […] of Reverse osmotic deionized water (RODI (positive control)), 50 n1, of 50 mM sodium oleate (Na oleate-50) in isotonic 2.5% glycerol or 100 μL of 50 mM sodium oleate (Na oleate-100), or 200 μL of phosphate buffered saline (negative control)) was added to 1.4 mL of bovine blood treated with heparin. Doc-100 and Doc-200 were prepared using procedures similar to those in Examples 1 and 2. The samples were incubated at room temperature for 10 minutes, and then centrifuged at 8000 rpm for 20 minutes. The supernatant was used for spectral analysis. The absorbance of the samples was measured by UV-scanning the samples at wavelengths from 190 nm to 810 nm. The high absorbance at 398 nm is due to hemolysis of the blood.

With `CCCCCCCC/C=C\CCCCCCCC(=O)[O-].[Na+]` [Na oleate-50, sodium oleate] the “hemolysis (absorbance at 398 nm, FIG. 1)” value was “complete hemolysis”.
